The values below are quoted from earlier work in patent US9387185B2, “N-ω-hydroxy-L-arginine derivatives for the treatment of diseases” (Christian-Albrechts-Universität Zu Kiel, priority 2009, dated 2016).

The structures appear in SMILES notation.

The subject of series [1] is rats. The conditions noted are these: i.v.
Series [2] addresses T1, arginase I (Homo sapiens, UniProt P05089).
T1 sequence (P05089 1-322): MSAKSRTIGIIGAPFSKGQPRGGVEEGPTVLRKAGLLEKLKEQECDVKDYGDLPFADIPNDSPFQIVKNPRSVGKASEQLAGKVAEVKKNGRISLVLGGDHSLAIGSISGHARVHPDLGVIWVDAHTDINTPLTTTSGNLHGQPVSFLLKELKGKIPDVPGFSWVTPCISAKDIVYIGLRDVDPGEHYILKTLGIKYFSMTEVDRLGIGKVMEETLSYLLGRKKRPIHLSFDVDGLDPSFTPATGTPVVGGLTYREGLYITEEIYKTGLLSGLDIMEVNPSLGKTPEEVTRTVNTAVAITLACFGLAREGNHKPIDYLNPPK

As to `N=C(NO)NCCC[C@H](N)C(=O)O` [NOHA, N^ω-hydroxy-L-arginine], the “effects for treating the erectile dysfunction, endothelial dysfunction and hypertension” value in series [1] was “desired effects for treating the erectile dysfunction, endothelial dysfunction and hypertension could already be demonstrated”. Also, in series [2], the Ki was 30 to 42 µM.
